These results are taken from patent US10774051B2, “6-membered heterocyclic derivatives and pharmaceutical composition comprising the same” (Shionogi & Co., Ltd., priority 2015, dated 2020).

Where two headings read alike, the source gives them in different places.

Experiment [1] relates to partial sciatic nerve ligation model in rats. Briefly: Analgesic effect in a Seltzer model, evaluation (1): mechanical allodynia, von Frey filaments. The experiment is classed as in vivo. Particulars: rat, read-out: analgesic effect, % reversal of mechanical allodynia. The text has this:
Preparation of Partial Sciatic Nerve Ligation Model in Rats
Rats are anaesthetized using isoflurane/O2 inhalation anaesthesia. After induction of anesthesia, the left thigh is shaved. An incision was made in the skin just below the hip bone. The muscle was bluntly dissected to expose the sciatic nerve. About one half (½) of the sciatic nerve thickness is tightly ligated with a nylon thread and the wound is closed. The right thigh was used as a sham-operated control. The right thigh underwent an identical procedure with the left hind limb, however, the sciatic nerve was not manipulated or ligated.
Two weeks after nerve ligation, the effect on mechanical allodynia was assessed using a series of von Frey filaments. For habituation, the rats were placed into a plastic cage on a wire mesh bottom. Von Frey filaments (0.4 to 26 g) were applied to the plantar surface of the rat hind paws from the wire mesh side, and the value of the filament pressure at which the paw was withdrawn was used as a pain threshold. The measurement of mechanical sensitivity of the right and left hind paws was performed to obtain predose mechanical sensitivity. The rats showing the threshold change from 0.6 to 2 g (in nerve ligated side) and 8 to 15 g (in sham operated side) were used in the experiments. On the day before the experiment, the rats were evaluated with a series of von Frey filaments to familiarize them with the test procedure. The adopted animal was administrated with the compounds of the present invention. The compounds of the present invention were homogenized with mortar and pestle and suspended or diluted in 0.5% Methyl Cellulose to prepare 0.03-100 mg/2 mL/kg suspension and orally administered to rat using a syringe attached with a sonde. Post-dose mechanical sensitivities of the right and left hind paws were measured at approximately 1 to 7 hours after drug administration. Percent reversal of mechanical allodynia for each rat was calculated using the following formula. The analgesic effects of the compounds were compared.

The next experiment addresses human P2X7 receptor (Homo sapiens, UniProt Q99572, R270H/Y155H). Nature of the experiment: Evaluation of human P2X7 receptor inhibitory activity (Yo-Pro uptake, BzATP stimulation, FLIPR TETRA). The experiment is classed as cell-based. The method in brief:
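1321N1 cells stably expressing human P2X7 (T606C/G952A SNP variant), in HBSS buffer pH 7.4-7.5 with Yo-Pro, stimulated with BzATP; compound added 8 min after agonist. Fluorescence followed for 20 min on FLIPR; max-minus-min change gave % inhibition, IC50 by logistic fit.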

The mark [2] stands for this setting: 5 hours after oral administration of 3 mg/kg.
Setting [3] is: 1321N1 cells stably expressing human P2X7 receptor, BzATP stimulation, Yo-Pro uptake, read-out: IC50 (antagonistic activity for the human P2X7 receptor).
The mark [4] stands for this setting: 3 hours after oral administration of 3 mg/kg.
Setting [5] is: antagonistic activity for the human P2X7 receptor, read-out: IC50.

Regarding `O=C1CCCc2c(Nc3nc(=O)c(F)cn3Cc3cc(F)c(F)c(F)c3)cccc21` [Compound I-1108], in experiment [1] (setting [2]), the inhibition in vivo at 3 mg/kg amounted to 42%. Besides, the IC50 at human P2X7 receptor (setting [3]) worked out at 4 nM.

On to `COc1cc(C)c(Nc2nc(=O)cnn2Cc2cc(F)c(F)c(F)c2)cc1OC` [Compound I-1281], for which the inhibition in vivo at 3 mg/kg in experiment [1] (setting [2]) came out at 48%. Moreover, at human P2X7 receptor (setting [3]), the IC50 was determined as 4 nM.

Turning to `COc1cn(Cc2ccc(F)c(Cl)c2)c(Nc2cc3sc(C)nc3cc2C)nc1=O` [Compound I-0005], in experiment [1] (setting [4]), the inhibition in vivo at 3 mg/kg was 45%. In addition, on human P2X7 receptor (setting [3]), the IC50 is 5 nM.

Consider `COc1cc(C)c(Nc2nc(=O)c(OC)cn2Cc2cc(F)cc(F)c2)cc1C` [Compound I-0372], for which the inhibition in vivo at 3 mg/kg in experiment [1] (setting [4]) stood at 64%. For the same molecule, the IC50 on human P2X7 receptor (setting [3]) stood at 5 nM.

As to `COc1ccc(F)c(Nc2nc(=O)c(F)cn2Cc2cc(F)c(F)c(F)c2)c1` [Compound I-1296], the inhibition in vivo at 3 mg/kg in experiment [1] (setting [4]) is 59%. Moreover, the IC50 at human P2X7 receptor (setting [3]) stood at 11 nM.

Consider `COc1cc(C)c(Nc2nc(=O)c(C)nn2Cc2cc(F)cc(F)c2)cc1OC` [Compound I-1261], for which, in experiment [1] (setting [2]), the inhibition in vivo at 3 mg/kg was found to be 54%. Also, the IC50 on human P2X7 receptor (setting [3]) is 16 nM.

With `COc1ccc(Nc2nc(=O)c(F)cn2Cc2cc(F)cc(F)c2)c(C)c1` [Compound I-0842], the inhibition in vivo at 3 mg/kg in experiment [1] (setting [2]) is 69%. The IC50 on human P2X7 receptor (setting [3]) was found to be 5 nM.

With `COc1ccc(Nc2nc(=O)c(F)cn2Cc2cc(F)c(F)c(F)c2)c(C)c1` [Compound I-1040], the inhibition in vivo at 3 mg/kg in experiment [1] (setting [4]) was found to be 49%. Moreover, the IC50 on human P2X7 receptor (setting [3]) was 6 nM.

As for `COc1ccc(C)c(Nc2nc(=O)c(OC)cn2Cc2ccc(F)c(Cl)c2)c1` [Compound I-0354], the inhibition in vivo at 3 mg/kg in experiment [1] (setting [4]) was determined as 51%. Also, the IC50 at human P2X7 receptor (setting [3]) stood at 3 nM.

With `COc1cn(Cc2ccc(F)c(Cl)c2)c(Nc2cc(C)c(Cl)cc2C)nc1=O` [Compound I-0006], in experiment [1] (setting [4]), the inhibition in vivo at 3 mg/kg was 49%. Besides, on human P2X7 receptor (setting [3]), the IC50 came out at 6 nM.

In the case of `COc1cn(Cc2cc(F)c(F)c(F)c2)c(Nc2cc3c(cc2C)COC3)nc1=O` [Compound I-0910], the inhibition in vivo at 3 mg/kg in experiment [1] (setting [2]) worked out at 45%. Moreover, the IC50 on human P2X7 receptor (setting [3]) came out at 14 nM.

Consider `CCOc1ccc(Nc2nc(=O)c(OC)cn2Cc2cc(F)c(F)c(F)c2)c(C)c1` [Compound I-0702], for which the inhibition in vivo at 3 mg/kg in experiment [1] (setting [2]) worked out at 58%. Also, the IC50 on human P2X7 receptor (setting [3]) was 11 nM.

On to `COc1ccc(C)c(Nc2nc(=O)c(F)cn2Cc2cc(F)c(F)c(F)c2)c1` [Compound I-1066], for which, in experiment [1] (setting [2]), the inhibition in vivo at 3 mg/kg amounted to 63%. Further, at human P2X7 receptor (setting [3]), the IC50 is 3 nM.

For `Cc1cc(Nc2nc(=O)c(F)cn2Cc2cc(F)c(F)c(F)c2)c(C)nc1OC(F)F` [Compound I-1232], in experiment [1] (setting [2]), the inhibition in vivo at 3 mg/kg worked out at 55%. Moreover, the IC50 on human P2X7 receptor (setting [3]) amounted to 6 nM.

In the case of `COc1cn(Cc2cc(F)c(F)c(F)c2)c(Nc2ccc(OC(F)F)cc2C)nc1=O` [Compound I-0707], the inhibition in vivo at 3 mg/kg in experiment [1] (7 hours after oral administration of 3 mg/kg) was 53%. Also, the IC50 on human P2X7 receptor (setting [3]) was determined as 14 nM.

As to `COc1cc(Nc2nc(=O)c(F)cn2Cc2cc(F)cc(F)c2)c(C)cc1F` [Compound I-1050], the inhibition in vivo at 3 mg/kg in experiment [1] (setting [2]) stood at 46%. At human P2X7 receptor (setting [3]), the IC50 worked out at 10 nM.

Consider `COc1cn(Cc2ccc(F)c(Cl)c2)c(Nc2ccc(OC(F)F)cc2C)nc1=O` [Compound I-0365], for which the inhibition in vivo at 3 mg/kg in experiment [1] (setting [2]) was found to be 55%. Moreover, the IC50 at human P2X7 receptor (setting [3]) is 18 nM.

Consider `Cc1cc2c(cc1Nc1nc(=O)c(F)cn1Cc1cc(F)c(F)c(F)c1)COC2` [Compound I-1041], for which the inhibition in vivo at 3 mg/kg in experiment [1] (setting [2]) is 48%. Further, the IC50 at human P2X7 receptor (setting [3]) turned out to be 9 nM.

For the molecule `Cc1ccc(F)cc1Nc1nc(=O)c(F)cn1Cc1cc(F)c(F)c(F)c1` [Compound I-1295], the inhibition in vivo at 3 mg/kg in experiment [1] (setting [4]) is 51%. In addition, on human P2X7 receptor (setting [3]), the IC50 was 13 nM.

As for `COc1ccc(Nc2nc(=O)c(F)cn2Cc2cc(F)cc(F)c2)c(C)c1F` [Compound I-1297], the inhibition in vivo at 3 mg/kg in experiment [1] (setting [2]) was determined as 49%. At human P2X7 receptor (setting [3]), the IC50 came out at 16 nM.

With `COc1cn(Cc2ccc(F)c(Cl)c2)c(Nc2ccc(C#N)cc2C)cc1=O` [Compound I-0958], the IC50 on human P2X7 receptor (setting [5]) was 100 to 500 nM.

With `COc1cn(Cc2ccccc2)c(Nc2cc(N3CCCC3)ccc2C)nc1=O` [Compound I-0883], on human P2X7 receptor (setting [5]), the IC50 fell in the range of 10 to 100 nM.

With `Cc1cc2cc(Nc3nc(=O)c(F)cn3Cc3cc(F)c(F)c(F)c3)c(C)cc2[nH]1` [Compound I-1054], the IC50 at human P2X7 receptor (setting [5]) is less than 10 nM.

In the case of `COc1cn(Cc2cc(F)cc(F)c2)c(Nc2cc(N3CCCS3(=O)=O)ccc2C)nc1=O` [Compound I-0552], the IC50 on human P2X7 receptor (1321N1 cells stably expressing human P2X7 receptor, BzATP stimulation, Yo-Pro uptake, read-out: IC50 (antagonistic activity for the human P2X7 receptor), class symbol) lay within 10 to 100 nM.

For the molecule `Cc1cc2c(cc1Nc1nc(=O)c(C#N)cn1Cc1cc(F)c(F)c(F)c1)COC2` [Compound I-1130], the IC50 on human P2X7 receptor (setting [5]) lay within 10 to 100 nM.

Take `COc1cn(Cc2ccccc2F)c(Nc2cc(C)c(C)cc2C)nc1=O` [Compound I-0176]: the IC50 at human P2X7 receptor (setting [3]) stood at 13 nM.
